Source: US10266544B2, “Aryl substituted aminomethyl spectinomycin analogs as antibacterial agents” (ST. JUDE CHILDREN'S RESEARCH HOSPITAL, INC., priority 2013, dated 2019)
In brackets after ≈: the same amount, converted by molar mass. Counter-ions that a name gives are not always drawn. Like-named read-outs stand apart in the source and are kept apart here.

How the values were obtained:
Type in all cases: cell-based
[1] = test system: Neisseria meningitides (ATCC 13077); assay: Disc diffusion assay; settings: ATCC13077, 4 μg per disc, read-out: Zone of inhibition N.m.
[2] = test system: Bacillus anthracis, Sterne 34F2; assay: microbe, parasite or virus in culture; settings: STERNE34F2, read-out: MIC B.a.
[3] = test system: Burkholderia cepacia (ATCC 25416); assay: MIC determination, microbroth dilution; settings: Burkholderia cepacia
[4] = test system: Haemophilus influenza (ATCC 49247); assay: microbe, parasite or virus in culture; settings: ATCC49247; Haemophilus influenza; 4 μg per disc; range of at least two experiments; read-out: Zone of inhibition H.i.
[5] = test system: Streptococcus pneumoniae (R6); assay: MIC determination, microbroth dilution; settings: read-out: MIC S. pn.
[6] = test system: Neisseria gonorrhoeae (ATCC 49226); assay: Disc diffusion assay; settings: ATCC49226, 4 μg per disc, read-out: Zone of inhibition N.g.
[7] = test system: Staphylococcus aureus (ATCC 29213); assay: MIC determination, microbroth dilution
[8] = test system: Escherichia coli (ATCC 700926); assay: MIC determination, microbroth dilution; settings: ATCC700926; Escherichia coli (ATCC 700926); read-out: MIC E.c.
[9] = test system: Klebsiella pneumoniae (ATCC 33495); assay: MIC determination, microbroth dilution; settings: ATCC33495
[10] = test system: Proteus mirabilis (ATCC 25933); assay: MIC determination, microbroth dilution; settings: ATCC25933
[11] = test system: acinetobacter baumannii (ATCC 19606); assay: MIC determination, microbroth dilution; settings: ATCC19606
E. coli K12 ΔtolC = assay: microbe, parasite or virus in culture; settings: Escherichia coli, read-out: MIC E.c. Δtolc
[12] = test system: Pseudomonas aeruginosa (PA01); assay: MIC determination, microbroth dilution
[13] = test system: MRSA, Staphylococcus aureus (NRS70); assay: MIC determination, microbroth dilution; settings: read-out: MIC MRSA
[14] = test system: M. tuberculosis clinical isolates; assay: microbe, parasite or virus in culture; settings: Mycobacterium tuberculosis
Listeria monocytogenes = assay: MIC determination (Table 6)
Moraxella catarrhalis = assay: MIC determination (Table 6)
[15] = test system: Bacillus subtilis (ATCC 23857); assay: MIC determination, microbroth dilution
[16] = test system: Enterococcus faecalis (ATCC 33186); assay: MIC determination, microbroth dilution
Bacillus anthracis = assay: microbe, parasite or virus in culture; settings: read-out: MIC B.a.
[17] = test system: Legionella pneumophila (ATCC 33153); assay: microbe, parasite or virus in culture; settings: ATCC33153, 72 h, read-out: Zone of inhibition L.p.
[18] = test system: Stenotrophomonas maltophilia (ATCC 13637); assay: MIC determination, microbroth dilution
[19] = test system: Streptococcus pyogenes (ATCC 700294); assay: MIC determination, microbroth dilution
[20] = test system: Proteus vulgaris (ATCC 33420); assay: MIC determination, microbroth dilution; settings: ATCC33420
[21] = ATCC25416, read-out: MIC B.c., Burkholderia cepacia (ATCC 25416)
[22] = ATCC25416, read-out: MIC B.c., Burkholderia cepacia, Table 6
[23] = ATCC23857, Bacillus subtilis (ATCC 23857), read-out: MIC B.s.
[24] = ATCC13637, Stenotrophomonas maltophilia (ATCC 13637), read-out: MIC S.m.
[25] = ATCC700294, Streptococcus pyogenes (ATCC 700294), read-out: MIC S. py.
[26] = ATCC29213, Staphylococcus aureus (ATCC 29213), read-out: MIC S.a.
[27] = ATCC33186, Enterococcus faecalis (ATCC 33186), read-out: MIC E.f.

| Compound | zone of inhibition at 4 µg/disc [1] [mm] | MIC [2] [µg/mL] | MIC [3, 21] [µg/mL] | MIC [3, 22] [µg/mL] | zone of inhibition at 4 µg/disc [4] [mm] | MIC ([5]; Streptococcus pneumoniae (R6)) [µg/mL] | zone of inhibition at 4 µg/disc [6] [mm] | MIC [8] [µg/mL] | MIC [9] [µg/mL] | MIC [10] [µg/mL] | MIC [11] [µg/mL] | MIC (E. coli K12 ΔtolC) [µg/mL] | MIC [12] [µg/mL] | MIC ([14]; H37RV, read-out: MIC H37Rv) [µg/mL] | MIC (Listeria monocytogenes) [µg/mL] | MIC (Moraxella catarrhalis) [µg/mL] | MIC [15, 23] [µg/mL] | MIC (Bacillus anthracis) [µg/mL] | zone of inhibition at 4 µg/disc [17] [mm] | MIC [20] [µg/mL] | other results |
| --- | --- | --- | --- | --- | --- | --- | --- | --- | --- | --- | --- | --- | --- | --- | --- | --- | --- | --- | --- | --- | --- |
| CN[C@@H]1[C@H](O)[C@H](NC)[C@H]2O[C@]3(O)[C@H](O[C@@H]2[C@H]1O)O[C@H](C)C[C@@]3(O)CNCc1ccc(C(C)C)cc1 [compound 23, 3′-(R)-3′-[(4-isopropyl)benzylaminomethyl)]dihydrospectinomycin Trihydrochloride] | 17 | 12.5 | > 200 | > 200 | 15 | 1.6 to 3.1 | 18 | 12.5 | 50 | > 200 | 50 | 3.1 to 6.3 | 25 | 25 | 6.3 | 3.1 to 6.3 | 6.3 | 12.5 | 12 | > 200 | MIC ([7]; Staphylococcus aureus, ATCC29213, read-out: MIC S.a.): 12.5 to 25 µg/mL; MIC ([13]; Staphylococcus aureus): 12.5 µg/mL; MIC ([16]; Enterococcus faecalis, ATCC33186, read-out: MIC E.f.): 12.5 µg/mL; MIC [18, 24]: 6.3 µg/mL; MIC [19, 25]: 1.6 µg/mL |
| CN[C@@H]1[C@H](O)[C@H](NC)[C@H]2O[C@]3(O)[C@H](O[C@@H]2[C@H]1O)O[C@H](C)C[C@@]3(O)CNCc1ccc(C)cc1C [compound 24, 3′-(R)-3′-[(2,4-dimethyl)benzylaminomethyl)]dihydrospectinomycin Trihydrochloride] | 17 | 50 | > 200 | > 200 | 14 | 3.1 | 18 | 25 | 100 to 200 | > 200 | 200 | 12.5 to 25 | 50 | 25 | 12.5 | 1.6 | 12.5 | 50 | 18 | 200 | MIC [7, 26]: 6.3 to 12.5 µg/mL; MIC ([13]; Staphylococcus aureus (NRS70)): 50 µg/mL; MIC [16, 27]: 12.5 µg/mL; MIC [18, 24]: 25 to 50 µg/mL; MIC [19, 25]: 1.6 µg/mL |
| CN[C@@H]1[C@H](O)[C@H](NC)[C@H]2O[C@]3(O)[C@H](O[C@@H]2[C@H]1O)O[C@H](C)C[C@@]3(O)CNCc1cccc(OC(F)(F)F)c1 [compound 25, 3′-(R)-3′-[(3-trifluoromethoxyl)benzylaminomethyl)]dihydrospectinomycin Trihydrochloride] | 18 | 25 |  | > 200 | 9 to 10 | 1.6 to 3.1 | 18 |  |  | > 200 |  |  | 50 to 100 | 200 | 6.3 | 6.3 | 12.5 to 25 | 25 | 19 | > 200 | MIC [7, 26]: 25 to 50 µg/mL; MIC ([13]; Staphylococcus aureus (NRS70)): 50 µg/mL; MIC [16, 27]: 12.5 to 25 µg/mL; MIC [18, 24]: 12.5 to 25 µg/mL; MIC [19, 25]: 1.6 µg/mL |
| CN[C@@H]1[C@H](O)[C@H](NC)[C@H]2O[C@]3(O)[C@H](O[C@@H]2[C@H]1O)O[C@H](C)C[C@@]3(O)CNCCc1cccs1 [compound 61, 3′-(R)-3′-[((2-(thiophen-2-yl)ethyl)aminomethyl]dihydrospectinomycintrihydrobromide] | 14 | 12.5 to 50 | ≥ 200 | ≥ 200 | 14 | 6.3 | 13 | 25 | 50 | 200 | > 200 | 3.1 to 6.3 | > 200 | 6.3 | 6.3 | 1.6 | 6.3 | 12.5 to 50 | 30 | 100 to 200 | MIC [7, 26]: 12.5 µg/mL; MIC ([13]; Staphylococcus aureus (NRS70)): 25 to 50 µg/mL; MIC ([14]; read-out: MIC TN022): 6.3 µg/mL; MIC ([14]; read-out: MIC TN026): 6.3 µg/mL; MIC [18, 24]: 12.5 µg/mL; MIC [19, 25]: 12.5 µg/mL |
| CN[C@@H]1[C@H](O)[C@H](NC)[C@H]2O[C@]3(O)[C@H](O[C@@H]2[C@H]1O)O[C@H](C)C[C@@]3(O)CNCCc1ccc[nH]1 [compound 62, 3′-(R)-3′-[((2-(1H-pyrrol-2-yl)ethyl)aminomethyl]dihydrospectinomycintetrahydrobromide] | 0 | 25 | > 200 | > 200 | 0 | 100 | 0 | 50 | 100 to 200 | 200 | > 200 | 12.5 | > 200 | 50 | 25 | 12.5 | 6.3 | 25 | 12 | 50 to 100 | MIC [7, 26]: 25 µg/mL; MIC ([13]; Staphylococcus aureus): 12.5 to 25 µg/mL; MIC ([14]; read-out: MIC TN022): 25 µg/mL; MIC ([14]; read-out: MIC TN026): 100 µg/mL; MIC [18, 24]: 6.3 µg/mL; MIC [19, 25]: 200 µg/mL |
| CN[C@@H]1[C@H](O)[C@H](NC)[C@H]2O[C@]3(O)[C@H](O[C@@H]2[C@H]1O)O[C@H](C)C[C@@]3(O)CNCCc1nccs1 [compound 64, 3′-(R)-3′-[((2-(thiazol-2-yl)ethyl)aminomethyl]dihydrospectinomycintetrahydrobromide] | 11 | 50 | > 200 | > 200 | 11 | 12.5 | 8 | 50 to 100 | 100 to 200 | > 200 | > 200 | 25 to 50 | > 200 | 1.6 | 12.5 | 3.1 | 12.5 to 25 | 50 | 33 | > 200 | MIC [7, 26]: 50 to 100 µg/mL; MIC ([13]; Staphylococcus aureus (NRS70)): > 200 µg/mL; MIC ([14]; read-out: MIC TN022): 1.6 µg/mL; MIC ([14]; read-out: MIC TN026): 1.6 µg/mL; MIC [18, 24]: 25 to 50 µg/mL; MIC [19, 25]: 25 µg/mL |
| CN[C@@H]1[C@H](O)[C@H](NC)[C@H]2O[C@]3(O)[C@H](O[C@@H]2[C@H]1O)O[C@H](C)C[C@@]3(O)CNCC(C)c1ccccc1 (stereo partly drawn) [compound 65] | 13 | 12.5 (≈ 26 µM) | ≥ 200 | ≥ 200 | 10 |  | 12 | 50 (≈ 104 µM) | > 200 | > 200 | > 200 | 6.3 to 12.5 (≈ 13.1 to 26 µM) | > 200 | 50 (≈ 104 µM) | 12.5 (≈ 26 µM) | 3.1 (≈ 6.44 µM) |  | 12.5 (≈ 26 µM) | 22 | > 200 | MIC ([5]; Streptococcus pneumoniae): 12.5 µg/mL (≈ 26 µM); MIC [7, 26]: 25 µg/mL (≈ 51.9 µM); MIC ([13]; Staphylococcus aureus): 12.5 to 25 µg/mL (≈ 26 to 51.9 µM); MIC ([14]; read-out: MIC TN022): 100 µg/mL (≈ 208 µM); MIC ([14]; read-out: MIC TN026): 100 µg/mL (≈ 208 µM); MIC ([15]; Bacillus subtilis, ATCC23857, read-out: MIC B.s.): 12.5 µg/mL (≈ 26 µM); MIC ([18]; Stenotrophomonas maltophilia, ATCC13637, read-out: MIC S.m.): 12.5 µg/mL (≈ 26 µM); MIC ([19]; Streptococcus pyogenes, ATCC700294, read-out: MIC S. py.): 12.5 µg/mL (≈ 26 µM) |
